Measured values reported in US5072002A, “Synthesis of cholesterol-lowering agents” (The Governors of the University of Alberta, priority 1989, dated 1991).

Tests used:
[1] = administered to human beings; cited from earlier work
[2] = molecular target: T1, Rat Liver 3-hydroxy-3-methylglutarylcoenzyme A Reductase (Rattus norvegicus, UniProt P51639); experiment: Assay of HMGCoA reductase (rat liver microsomes), in vitro; format: biochemical; settings: 20 min, 37° C., DMSO control 652, none 1254
T1 construct: rat liver microsome (75 μg protein); from tissue; host or cells: rat liver microsomes
T1 sequence (P51639 1-887): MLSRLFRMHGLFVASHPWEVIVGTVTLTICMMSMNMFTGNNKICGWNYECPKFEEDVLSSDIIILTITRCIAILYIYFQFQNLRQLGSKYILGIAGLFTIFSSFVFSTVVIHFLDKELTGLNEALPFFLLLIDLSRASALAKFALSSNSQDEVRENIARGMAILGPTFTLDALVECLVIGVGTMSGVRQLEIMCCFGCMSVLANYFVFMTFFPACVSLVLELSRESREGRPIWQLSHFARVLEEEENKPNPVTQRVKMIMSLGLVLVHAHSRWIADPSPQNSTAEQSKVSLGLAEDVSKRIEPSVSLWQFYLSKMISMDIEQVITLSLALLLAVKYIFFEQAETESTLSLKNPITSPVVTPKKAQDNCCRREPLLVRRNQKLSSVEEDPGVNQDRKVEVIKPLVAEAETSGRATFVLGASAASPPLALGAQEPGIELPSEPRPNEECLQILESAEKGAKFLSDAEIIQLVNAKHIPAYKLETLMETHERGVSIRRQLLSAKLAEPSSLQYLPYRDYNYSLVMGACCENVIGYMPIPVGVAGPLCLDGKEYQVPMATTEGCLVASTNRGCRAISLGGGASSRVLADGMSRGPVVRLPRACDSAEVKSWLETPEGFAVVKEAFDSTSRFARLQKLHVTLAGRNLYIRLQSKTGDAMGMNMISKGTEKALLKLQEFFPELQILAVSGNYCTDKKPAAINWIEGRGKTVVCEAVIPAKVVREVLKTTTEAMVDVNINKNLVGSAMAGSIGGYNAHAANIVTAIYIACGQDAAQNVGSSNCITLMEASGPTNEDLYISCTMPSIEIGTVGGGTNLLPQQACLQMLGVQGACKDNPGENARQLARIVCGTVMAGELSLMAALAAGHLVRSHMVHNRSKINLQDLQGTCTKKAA
Experimental: Ethylcompactin and mevinolin were dissolved in DMSO. Aliquots (10 μl) of each were incubated with 50 μl of 50 mM Pot. phosphate pH 7.4, 70 mM KCl, 30 mM EDTA, 10 mM DTT for 30 min at 37° C. to delactonize the compounds. Control incubations were done with 10 μL DMSO.
Assay of HMGCoA reductase was carried out as described by George and Ramasarma, [George R., Ramasarma, T., Biochem. J. (1977) 162:493-499]. At the end of 30 min, incubation for […], rat liver microsome (75 μg protein) were added to each tube along with glucose-6-phosphate (577 μM) glucose-6-phosphate dehydrogenase (0.05 unit/assay) and MADPH ([…]) and incubated for an additional 10 min at 37° C.
HMGCoA reductase reaction was initiated by the additon of 3-^14 C-HMGCoA ([…], final) and carried out for 20 min at 37° C. in a total volume of 100 μl. The reaction was terminated by the addition of 5N HCl (25 μl) containing known amounts of ^3 -H-Mevalonolactone as internal standard and non-radioactive mevalonolactone (0.6 mg/assay) as carrier. Mevalonic acid formed in the assay was allowed to lactonize by incubating the mixture for 30 min at 37° C. The precipitated protein was removed by centrifugation in a microfuge. An aliquot of the supernatant (40 μl) was applied on silica gel G (0.25 mm thickness) plates and the chromatogram developed with Acetone:Benzene (3:2). The spot corresponding to the mevalonolactone (Rf 0.5) was scraped off and the radioactivity estimated by liquid scintillation counting. Mevalonic acid formed was calcualted from the recovery of internal standard. Microsomal protein was estimated by the method of Lowry [J. Biol. Chem. (1951) 193:265-275 ] after precipitation according to Bensadoun and Weinstein [Anal. Biochem. (1976) 70:241-250]. The specific activity of HMGCoA reductase is expressed as p moles of mevalonic acid formed per minute per mg of microsomal protein.

[3] = based on existing biological data; cited from earlier work
[4] = 100 nM in assay (in 10 μl DMSO)

| SMILES | concentration in the blood of LDL cholesterol [1] | HMGCoA Reductase Activity ([2]; 1 nM in assay (in 10 μl DMSO)) | HMGCoA Reductase Activity [2, 4] | HMGCoA Reductase Activity ([2]; 1 μM in assay (in 10 μl DMSO)) | HMGCoA Reductase Activity ([2]; 10 μM in assay (in 10 μl DMSO)) | activity in lowering LDL cholesterol levels as compared to Compactin [3] |
| --- | --- | --- | --- | --- | --- | --- |
| CC[C@H](C)C(=O)O[C@H]1CCC=C2C=C[C@H](C)[C@H](CC[C@@H]3C[C@@H](O)CC(=O)O3)[C@H]21 [Compactin, (+)-Compactin] | reduced |  |  |  |  |  |
| CC[C@H]1C=C2C=C[C@H](C)[C@H](CC[C@@H]3C[C@@H](O)CC(=O)O3)[C@H]2[C@@H](OC(=O)[C@@H](C)CC)C1 [Ethyl Compactin, (+)-3-Ethylcompactin] |  | 730 pmol Mevalonate formed/min/mg | 361 pmol Mevalonate formed/min/mg | 182 pmol Mevalonate formed/min/mg | 20 pmol Mevalonate formed/min/mg |  |
| CC[C@H](C)C(=O)O[C@H]1C[C@@H](C)C=C2C=C[C@H](C)[C@H](CC[C@@H]3C[C@@H](O)CC(=O)O3)[C@H]21 [Mevinolin, (+)-Mevinolin] | reduced | 609 pmol Mevalonate formed/min/mg | 303 pmol Mevalonate formed/min/mg | 113 pmol Mevalonate formed/min/mg | 52 pmol Mevalonate formed/min/mg | several times more active |
